System: Japanese medaka (Oryzias latipes)
Assay: Fish short-term reproduction assay (FSTRA, OECD TG229), 21-day flow-through exposure
Settings: for Fertility rate (%) / Mortality (%) Female / Mortality (%) Male / Number of fertilized eggs / Number of total eggs / SSC Female / VTG (ng/mg of liver) Female / VTG (ng/mg of liver) Male / SSC Male: 21 days; for GSI Female / GSI Male / HSI Female / HSI Male / Length Female / Length Male / Weight Female / Weight Male: at completion of exposure; for effect on fecundity (number of total eggs), in words: within the test concentrations
Method in brief: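 Japanese medaka (NIES-R strain, 16 ± 2 weeks old) were exposed in flow-through tanks for 3 weeks, three males and three females per tank, four replicate tanks per group, with a dilution water control. Concentrations were spaced by a factor of 2–5. Eggs were collected daily and counted as fertilized or unfertilized.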

[1] = hepatic VTG, 21-day exposure, measured conc.

Cc1cc(O)ccc1Cl [CMP, 4‐Chloro‐3‐methylphenol]
LOEC on VTG induction in male (in molarity) (hepatic VTG, 21-day exposure): 7.4 µM | LOEC (in molarity) for male VTG: times higher than that of E2 (in vivo): 110,000 times | Fertility rate (%) (measured conc. 108 μg/L): 94% | Mortality (%) Female (measured conc. 108 μg/L): 0% | Mortality (%) Male (measured conc. 108 μg/L): 0% | Number of fertilized eggs (measured conc. 108 μg/L): 24 | Number of total eggs (measured conc. 108 μg/L): 26 ± 3.2 /female/day | SSC Female (measured conc. 108 μg/L): 0 ± 0 | VTG (ng/mg of liver) Female (measured conc. 108 μg/L): 2,610 ± 265 ng/mg of liver | VTG (ng/mg of liver) Male (measured conc. 108 μg/L): 2.9 ± 4.4 ng/mg of liver | GSI Female (measured conc. 108 μg/L): 9.9% | GSI Male (measured conc. 108 μg/L): 0.80% | HSI Female (measured conc. 108 μg/L): 3.9% | HSI Male (measured conc. 108 μg/L): 1.9% | Length Female (measured conc. 108 μg/L): 36.5 mm | Length Male (measured conc. 108 μg/L): 36.0 mm | Weight Female (measured conc. 108 μg/L): 565 mg | Weight Male (measured conc. 108 μg/L): 498 mg | Fertility rate (%) (measured conc. 350 μg/L): 94% | Mortality (%) Female (measured conc. 350 μg/L): 0% | Mortality (%) Male (measured conc. 350 μg/L): 0% | Number of fertilized eggs (measured conc. 350 μg/L): 24 | Number of total eggs (measured conc. 350 μg/L): 25 ± 3.9 /female/day | SSC Female (measured conc. 350 μg/L): 0 ± 0 | VTG (ng/mg of liver) Female (measured conc. 350 μg/L): 2,650 ± 214 ng/mg of liver | VTG (ng/mg of liver) Male (measured conc. 350 μg/L): 9.9 ± 18.3 ng/mg of liver | GSI Female (measured conc. 350 μg/L): 9.8% | GSI Male (measured conc. 350 μg/L): 0.68% | HSI Female (measured conc. 350 μg/L): 4.4% | HSI Male (measured conc. 350 μg/L): 2.4% | Length Female (measured conc. 350 μg/L): 35.4 mm | Length Male (measured conc. 350 μg/L): 36.4 mm | Weight Female (measured conc. 350 μg/L): 509 mg | Weight Male (measured conc. 350 μg/L): 529 mg | Fertility rate (%) (measured conc. 1,060 μg/L): 93% | Mortality (%) Female (measured conc. 1,060 μg/L): 8.3% | Mortality (%) Male (measured conc. 1,060 μg/L): 0% | Number of fertilized eggs (measured conc. 1,060 μg/L): 23 | Number of total eggs (measured conc. 1,060 μg/L): 25 ± 2.3 /female/day | SSC Female (measured conc. 1,060 μg/L): 0 ± 0 | VTG (ng/mg of liver) Female (measured conc. 1,060 μg/L): 3,020 ± 702 ng/mg of liver | VTG (ng/mg of liver) Male (measured conc. 1,060 μg/L): 33.8 ± 37.0 ng/mg of liver | GSI Female (measured conc. 1,060 μg/L): 9.9% | GSI Male (measured conc. 1,060 μg/L): 0.74% | HSI Female (measured conc. 1,060 μg/L): 3.9% | HSI Male (measured conc. 1,060 μg/L): 2.0% | Length Female (measured conc. 1,060 μg/L): 35.2 mm | Length Male (measured conc. 1,060 μg/L): 36.3 mm | Weight Female (measured conc. 1,060 μg/L): 509 mg | Weight Male (measured conc. 1,060 μg/L): 505 mg | effect on fecundity (number of total eggs), in words (21-day exposure): No effect

C#C[C@]1(O)CC[C@H]2[C@@H]3CCc4cc(O)ccc4[C@H]3CC[C@@]21C [EE2, 17α‐Ethynylestradiol]
LOEC on VTG induction in male (in molarity) (hepatic VTG, 21-day exposure): 6e-05 µM | LOEC for VTG induction in males [1]: 17.8 ng/L | effect on male GSI, in words (highest concentration, 21-day exposure): significant decreasing | LOEC on male VTG induction: times smaller than the LOEC for CMP (in vivo): more than 8,000 times | Fertility rate (%) (measured conc. 17.8 ng/L): 84% | Mortality (%) Female (measured conc. 17.8 ng/L): 0% | Mortality (%) Male (measured conc. 17.8 ng/L): 0% | Number of fertilized eggs (measured conc. 17.8 ng/L): 15 | Number of total eggs (measured conc. 17.8 ng/L): 18 ± 2.3 /female/day | SSC Female (measured conc. 17.8 ng/L): 0 ± 0 | SSC Male (measured conc. 17.8 ng/L): 90 ± 8.1 | VTG (ng/mg of liver) Female (measured conc. 17.8 ng/L): 2,170 ± 223 ng/mg of liver | VTG (ng/mg of liver) Male (measured conc. 17.8 ng/L): 68.3 ± 80.4 ng/mg of liver | GSI Female (measured conc. 17.8 ng/L): 10.0% | GSI Male (measured conc. 17.8 ng/L): 0.75% | HSI Female (measured conc. 17.8 ng/L): 4.2% | HSI Male (measured conc. 17.8 ng/L): 2.3% | Length Female (measured conc. 17.8 ng/L): 35.4 mm | Length Male (measured conc. 17.8 ng/L): 35.9 mm | Weight Female (measured conc. 17.8 ng/L): 516 mg | Weight Male (measured conc. 17.8 ng/L): 531 mg | Fertility rate (%) (measured conc. 84.9 ng/L): 88% | Mortality (%) Female (measured conc. 84.9 ng/L): 0% | Mortality (%) Male (measured conc. 84.9 ng/L): 0% | Number of fertilized eggs (measured conc. 84.9 ng/L): 15 | Number of total eggs (measured conc. 84.9 ng/L): 17 ± 4.9 /female/day | SSC Female (measured conc. 84.9 ng/L): 0 ± 0 | SSC Male (measured conc. 84.9 ng/L): 88 ± 5.7 | VTG (ng/mg of liver) Female (measured conc. 84.9 ng/L): 3,840 ± 1,370 ng/mg of liver | VTG (ng/mg of liver) Male (measured conc. 84.9 ng/L): 10,900 ± 3,840 ng/mg of liver | GSI Female (measured conc. 84.9 ng/L): 9.5% | GSI Male (measured conc. 84.9 ng/L): 0.60% | HSI Female (measured conc. 84.9 ng/L): 3.7% | HSI Male (measured conc. 84.9 ng/L): 2.7% | Length Female (measured conc. 84.9 ng/L): 35.8 mm | Length Male (measured conc. 84.9 ng/L): 36.3 mm | Weight Female (measured conc. 84.9 ng/L): 498 mg | Weight Male (measured conc. 84.9 ng/L): 548 mg | Fertility rate (%) (measured conc. 424 ng/L): 73% | Mortality (%) Female (measured conc. 424 ng/L): 8% | Mortality (%) Male (measured conc. 424 ng/L): 33% | Number of fertilized eggs (measured conc. 424 ng/L): 8 | Number of total eggs (measured conc. 424 ng/L): 10 ± 2.8 /female/day | SSC Female (measured conc. 424 ng/L): 0 ± 0 | SSC Male (measured conc. 424 ng/L): 86 ± 6.7 | VTG (ng/mg of liver) Female (measured conc. 424 ng/L): 15,100 ± 4,290 ng/mg of liver | VTG (ng/mg of liver) Male (measured conc. 424 ng/L): 23,900 ± 3,760 ng/mg of liver | GSI Female (measured conc. 424 ng/L): 10.4% | GSI Male (measured conc. 424 ng/L): 0.33% | HSI Female (measured conc. 424 ng/L): 3.8% | HSI Male (measured conc. 424 ng/L): 3.4% | Length Female (measured conc. 424 ng/L): 35.3 mm | Length Male (measured conc. 424 ng/L): 35.1 mm | Weight Female (measured conc. 424 ng/L): 507 mg | Weight Male (measured conc. 424 ng/L): 531 mg | effect on fecundity (number of total eggs), in words (21-day exposure): significant decrease

CC(=O)N1CCN(c2ccc(OCC3COC(Cn4ccnc4)(c4ccc(Cl)cc4Cl)O3)cc2)CC1 (stereo not shown) [KCZ, Ketoconazole]
effect on male SSC, in words (21-day exposure): statistical significance | LOEC for decrease of VTG in females [1]: 233 µg/L | Fertility rate (%) (measured conc. 105 μg/L): 91% | Mortality (%) Female (measured conc. 105 μg/L): 0% | Mortality (%) Male (measured conc. 105 μg/L): 0% | Number of fertilized eggs (measured conc. 105 μg/L): 22 | Number of total eggs (measured conc. 105 μg/L): 24 ± 1.1 /female/day | SSC Female (measured conc. 105 μg/L): 0 ± 0 | SSC Male (measured conc. 105 μg/L): 82 ± 10 | VTG (ng/mg of liver) Female (measured conc. 105 μg/L): 618 ± 81 ng/mg of liver | VTG (ng/mg of liver) Male (measured conc. 105 μg/L): 1.4 ± 0.3 ng/mg of liver | GSI Female (measured conc. 105 μg/L): 11.6% | GSI Male (measured conc. 105 μg/L): 1.08% | HSI Female (measured conc. 105 μg/L): 4.2% | HSI Male (measured conc. 105 μg/L): 1.9% | Length Female (measured conc. 105 μg/L): 33.2 mm | Length Male (measured conc. 105 μg/L): 32.7 mm | Weight Female (measured conc. 105 μg/L): 387 mg | Weight Male (measured conc. 105 μg/L): 381 mg | Fertility rate (%) (measured conc. 233 μg/L): 89% | Mortality (%) Female (measured conc. 233 μg/L): 0% | Mortality (%) Male (measured conc. 233 μg/L): 0% | Number of fertilized eggs (measured conc. 233 μg/L): 18 | Number of total eggs (measured conc. 233 μg/L): 20 ± 1.6 /female/day | SSC Female (measured conc. 233 μg/L): 0 ± 0 | SSC Male (measured conc. 233 μg/L): 116 ± 25 | VTG (ng/mg of liver) Female (measured conc. 233 μg/L): 542 ± 353 ng/mg of liver | VTG (ng/mg of liver) Male (measured conc. 233 μg/L): 1.3 ± 0.1 ng/mg of liver | GSI Female (measured conc. 233 μg/L): 12.0% | GSI Male (measured conc. 233 μg/L): 1.26% | HSI Female (measured conc. 233 μg/L): 8.8% | HSI Male (measured conc. 233 μg/L): 3.8% | Length Female (measured conc. 233 μg/L): 33.3 mm | Length Male (measured conc. 233 μg/L): 33.3 mm | Weight Female (measured conc. 233 μg/L): 419 mg | Weight Male (measured conc. 233 μg/L): 416 mg | Fertility rate (%) (measured conc. 405 μg/L): 81% | Mortality (%) Female (measured conc. 405 μg/L): 8% | Mortality (%) Male (measured conc. 405 μg/L): 0% | Number of fertilized eggs (measured conc. 405 μg/L): 9.0 | Number of total eggs (measured conc. 405 μg/L): 11 ± 4.4 /female/day | SSC Female (measured conc. 405 μg/L): 0 ± 0 | SSC Male (measured conc. 405 μg/L): 91 ± 13 | VTG (ng/mg of liver) Female (measured conc. 405 μg/L): 190 ± 123 ng/mg of liver | VTG (ng/mg of liver) Male (measured conc. 405 μg/L): 1.1 ± 0.1 ng/mg of liver | GSI Female (measured conc. 405 μg/L): 13.6% | GSI Male (measured conc. 405 μg/L): 0.98% | HSI Female (measured conc. 405 μg/L): 12.1% | HSI Male (measured conc. 405 μg/L): 3.5% | Length Female (measured conc. 405 μg/L): 32.6 mm | Length Male (measured conc. 405 μg/L): 32.4 mm | Weight Female (measured conc. 405 μg/L): 410 mg | Weight Male (measured conc. 405 μg/L): 404 mg | Fertility rate (%) (measured conc. 795 μg/L): 76% | Mortality (%) Female (measured conc. 795 μg/L): 42% | Mortality (%) Male (measured conc. 795 μg/L): 58% | Number of fertilized eggs (measured conc. 795 μg/L): 3.5 | Number of total eggs (measured conc. 795 μg/L): 4.7 ± 0.9 /female/day | SSC Female (measured conc. 795 μg/L): 0 ± 0 | SSC Male (measured conc. 795 μg/L): 80 ± 22 | VTG (ng/mg of liver) Female (measured conc. 795 μg/L): 56 ± 95 ng/mg of liver | VTG (ng/mg of liver) Male (measured conc. 795 μg/L): 1.1 ± 0.1 ng/mg of liver | GSI Female (measured conc. 795 μg/L): 11.0% | GSI Male (measured conc. 795 μg/L): 1.35% | HSI Female (measured conc. 795 μg/L): 11.8% | HSI Male (measured conc. 795 μg/L): 5.1% | Length Female (measured conc. 795 μg/L): 31.7 mm | Length Male (measured conc. 795 μg/L): 30.2 mm | Weight Female (measured conc. 795 μg/L): 376 mg | Weight Male (measured conc. 795 μg/L): 282 mg | effect on fecundity (number of total eggs), in words (21-day exposure): significant difference from the control

From PMC8359193, “Summary of reference chemicals evaluated by the fish short‐term reproduction assay, OECD TG229, using Japanese Medaka, Oryzias latipes” (Journal of Applied Toxicology, 2021)
